Measured values reported in US12055547B2, “TMEM active test and uses thereof in diagnosis, prognosis and treatment of tumors” (Albert Einstein College of Medicine, priority 2015, dated 2024).

Key:
macrophages = assay: Macrophage depletion in PyMT tumors in the MAFIA mouse model; format: in vivo; settings: vs vehicle
Text: Summary Tumor cell intravasation at sites of transient vascular permeability associated with TMEM was studied using mouse mammary tumor virus—polyoma middle T antigen (MMTV-PyMT) autochthonous and implanted models of human patient-derived mammary carcinoma. Single cell resolution of cell activity at TMEM in live animals was achieved using extended time-lapse imaging on a custom-built two-laser multiphoton microscope. To investigate the role of macrophages in tumor cell intravasation and blood vessel permeability, the MAFIA mouse model was used to deplete macrophages. Observation of extravascular dextran, vascular junction proteins and protein expression in tissue was performed using immunofluorescence microscopy. Further investigation of the mechanism of macrophage-mediated tumor cell intravasation and blood vessel permeability at TMEM utilized anti-mouse-VEGFA inhibitory antibody and the ablation of Vegfa expression in monocytes using a myeloid-specific (Csf1r promoter), tamoxifen-inducible Cre expressing mouse strain was crossed with Vegfa^flox/flox mice with gene ablation induced with tamoxifen.
Immunofluorescence image analysis. […] The remaining extravascular dextran area, and blood vessel area were then measured. […]

[1] = test system: Tie2 macrophage function in TMEM; assay: TMEM density and TMEM activity (IV-dextran/ZO-1 staining) in tumor after rebastinib; format: in vivo
Text: FIG. 11A-11B. […] (B) Quantification of vascular permeability activity of tumor TMEM using vascular permeability marker IV-dextran/ZO-1 staining intensity (n=7 and 9; * , P=0.0177).
The relative activity of TMEM can be quantified in (e.g., FFPE) tissue sections in several ways, e.g.: • 1. as the ratio of IV-dextran (or other IV contrast agent) that has leaked from the blood vessel into the tissue at the time of Formaldehyde Fixation after IV injection of contrast agent in preparation for FFPE (measure of local vascular permeability) divided by ZO-1 or VE-Cad staining intensity at TMEM (FIG. 11). Higher dextran/ZO-1=more TMEM activity; • 2. as the ratio of ZO-1 or VE-Cad staining intensity at TMEM per area of blood vessel (CD31 staining area) (FIG. 12). Higher VE-Cad or ZO-1/CD31=less TMEM activity; • 3. as the absolute intensity of ZO-1 or VE-Cad staining intensity at TMEM sites (FIG. 10). Higher VE-Cad staining=less TMEM activity.
The activity status of TMEM (TMEM^Active) in patient tissue samples can be used to assess the efficacy of dissemination inhibitor drugs that inhibit TMEM activity. For example, observe the effects of the following dissemination inhibitors on TMEM^Active using the quantitation methods for TMEM activity described in #1-3 above as follows: • a. Rebastinib, the Tie2 inhibitor which blocks VEGF^Hi TMEM macrophage function, (FIG. 11); • b. […]

Compound | blood vessel permeability (extravascular 155 kDa dextran-TMR) (macrophages; FIG. 5E) | tumor cell intravasation (circulating tumor cells) (macrophages; FIG. 5F) | TMEM density in 10 40× fields ([1]; FIG. 11A) | vascular permeability activity of tumor TMEM (IV-dextran/ZO-1 staining intensity) ([1]; FIG. 11B, n=7 and 9, P=0.0177)
CC[C@H](C(=O)N1CCCC[C@H]1C(=O)O[C@H](CCc1ccc(OC)c(OC)c1)c1cccc(OCC(=O)NCC(CNC(=O)COc2cccc([C@@H](CCc3ccc(OC)c(OC)c3)OC(=O)[C@@H]3CCCCN3C(=O)[C@@H](CC)c3cc(OC)c(OC)c(OC)c3)c2)CN(C)C)c1)c1cc(OC)c(OC)c(OC)c1 [B/B homodimerizer] | reduces | reduces |  | 
CNC(=O)c1cc(Oc2ccc(NC(=O)Nc3cc(C(C)(C)C)nn3-c3ccc4ncccc4c3)c(F)c2)ccn1 [Rebastinib] |  |  | not significant | inhibits TMEM activity
